Measured values published in ChEMBL document CHEMBL1150737, “Antitumor agents, 90. Bruceantinoside C, a new cytotoxic quassinoid glycoside from Brucea antidysenterica” (1987).
Converted amounts (≈) assume the structure as drawn.

Tests used:
P388 = assay: Cytotoxicity against mouse P388 cells; type: functional; settings: read-out: ED50 (the source's name)
L1210 = assay: Cytotoxicity against mouse L1210 cells; type: functional; settings: read-out: ED50 (the source's name)

SMILES	EC50 (P388) [µg/mL]	EC50 (L1210) [µg/mL]
COC(=O)[C@]12OC[C@]34[C@H]([C@@H](O)[C@@H]1O)[C@@]1(C)C(=O)C(O[C@@H]5O[C@H](CO)[C@@H](O)[C@H](O)[C@H]5O)=C[C@@H](C)[C@@H]1C[C@H]3OC(=O)[C@H](OC(=O)/C=C(\C)C(C)(C)OC(C)=O)[C@@H]24 [Bruceantinoside C]	2.12 (≈ 2.76 µM)	3.5 (≈ 4.55 µM)
O=c1[nH]cc(F)c(=O)[nH]1 [FLUOROURACIL]	3.72 (≈ 28.6 µM)	1.94 (≈ 14.9 µM)
COC(=O)[C@]12OC[C@]34[C@H]([C@@H](O)[C@@H]1O)[C@@]1(C)C=C(O[C@@H]5O[C@H](CO)[C@@H](O)[C@H](O)[C@H]5O)C(=O)[C@@H](C)[C@@H]1C[C@H]3OC(=O)[C@H](OC(=O)/C=C(\C)C(C)(C)OC(C)=O)[C@@H]24 [Yadanzioside G]	1.25 (≈ 1.63 µM)	2.58 (≈ 3.36 µM)
COC(=O)[C@]12OC[C@]34[C@H]([C@@H](O)[C@@H]1O)[C@@]1(C)C(=O)C(O[C@@H]5O[C@H](CO)[C@@H](O)[C@H](O)[C@H]5O)=C[C@@H](C)[C@@H]1C[C@H]3OC(=O)[C@H](OC(=O)/C=C(\C)C(C)C)[C@@H]24 [Yadanzioside N]	2.24 (≈ 3.15 µM)	4.56 (≈ 6.42 µM)
